From patent publication US7270977B2, “Polypeptides for identifying fungicidally active compounds” (priority 2001, dated 2007)

Target: U. maydis IMPDH (Imp1) (Ustilago maydis, UniProt A0A0D1CRJ0, T408N)
Assay: Inhibition of U. maydis IMPDH (NADH fluorescence assay)
Assay type: biochemical
Details: negative decimal logarithm of the molar IC50 for 50% inhibition of the enzyme; read-out: pI50 (converted)
Description: The activity, or the decrease or increase in activity, can also preferably be determined by means of the conversion of the substrate NAD^+ into NADH, where the lower, or inhibited, activity of the polypeptide according to the invention is determined with reference to a less sharp increase in fluorescence emitted by the smaller amounts of NADH formed (see also FIG. 1). NADH fluoresces more than NAD^+.
To this end, the polypeptide according to the invention is incubated at a suitable concentration, which is preferably between 0.1 and 20 ng/μl, preferably between 0.13 and 10 ng/μl, of the enzyme, with NAD^+ at a concentration of from 5 to 400 μM, preferably 10 to 100 μM, and IMP at a concentration of from 5 to 400 μM, preferably from 50 to 300 μM, at a suitable temperature. The IMP concentration is preferably in each case twice as high as the concentration of the substrate NAD^+. It must be borne in mind that substrate inhibition can be observed for both substrates, viz. NAD^+ and IMP, and the used concentrations of the two substrates should therefore be checked in this respect. The temperature may be in a range of from 8 to 37° C. The measurement is preferably carried out at from 10 to 30° C., room temperature is also suitable in particular. The reaction is carried out in a usual buffer (“assay buffer”) which can contain preferably for example 20 to 200 mM KCl, 1 to 5 mM DTE or DTT, 0.01 to 1% BSA, 0.01 to 0.1% Tween 20 and 2 to 10% glycerol and brought to a pH of 8, for example using 25 to 100 mM Tris buffer (see Example 2). […]
The formation of NADH in the course of the reaction is then monitored with reference to the fluorescence at an excitation wavelength of 360 nm and an emission wavelength of 465 nm. The increase in fluorescence in the presence of a chemical compound can then be compared with the increase in fluorescence in the absence of a chemical compound. […] The period within which the increase in fluorescence is measured can be varied. A slow increase in fluorescence can be observed over the course of several hours, until, after 5 to 10 hours, a plateau is reached (see also FIG. 3). As a rule, the fluorescence decreases thereafter. […]
The measurement can also be carried out in formats conventionally used for HTS or UHTS assays, for example in microtitre plates, into which for example a total volume of 5 to 50 μl is introduced per reaction or per well and the individual components are present in one of the above-stated final concentrations. […] The mixture is then incubated for example for up to 2 or 3 hours at a suitable temperature, and the increase in fluorescence is measured at an excitation wavelength of 360 nm and an emission wavelength of 460 nm. […]

Going from `CCCCCCCCCCCCCCCCOc1ccc(CCCC(=O)O)cc1` [Example 1] to `COC1=Cc2ccccc2C(=O)C1=O` [Example 2], the IC50 falls from 25.1 µM to 12.6 µM (2-fold).

Compared with `CN1CCN(C)c2cc3nc4ccccc4nc3cc21` [Example 3], `c1coc(-c2oc3nc4c(-c5ccco5)c(-c5ccco5)oc4nc3c2-c2ccco2)c1` [Example 4] is 50-fold lower in IC50: 10 µM for the first, 0.2 µM for the second.
